According to US10561639B2, “Composition comprising a TNFR agonist and at least one thioredoxin inhibitor for use in the treatment of carcinoma” (UNIVERSITY OF HUDDERSFIELD, priority 2013, dated 2020):

B1: mCD40L: membrane CD40 ligand delivered by co-culture with growth-arrested third-party cells expressing mCD40L (protein, UniProt P29965 1-261, looked up)
chain: MIETYNQTSPRSAATGLPISMKIFMYLLTVFLITQMIGSALFAVYLHRRLDKIEDERNLHEDFVFMKTIQRCNTGERSLSLLNCEEIKSQFEGFVKDIMLNKEETKKENSFEMQKGDQNPQIAAHVISEASSKTTSVLQWAEKGYYTMSNNLVTLENGKQLTVKRQGLYYIYAQVTFCSNREASSQAPFIASLCLKSPGRFERILLRAANTHSSAKPCGQQSIHLGGVFELQPGASVFVNVTDPSQVSHGTGFTSFGLLKL
modifications: full-length expressed on growth-arrested feeder cells

Legend:
[1] = test system: Bladder carcinoma cells (EJ); experiment: Cytotox-Glo apoptosis assay in bladder carcinoma cells (EJ); format: cell-based; conditions: 48 hours, G28-5 10 ug/mL, PX-12 at minimally cytotoxic concentration, FIG. 1
Protocol: Referring firstly to FIG. 1 where comparative results are shown from Bladder carcinoma cells (EJ) treated with soluble CD40 agonist (agonistic antibody G28-5), the indicated concentration of Trx inhibitor (PX-12), or their combination and results compared to untreated (Control) cells. Apoptosis was assessed 48 hours later using the Cytotox-Glo assay (Promega). Raw data (relative luminescence units) are shown and results are representative of three independent experiments in which six technical replicates were carried out for each condition.
Apoptosis was assessed 48 hours later using the Cytotox-Glo assay (Promega). Results are expressed as relative luciferase in comparison to negative controls and are representative of four independent experiments in which six technical replicates were carried out for each condition.
Carcinoma cell lines EJ and HCT116 (obtained from the European Collection of Cell Cultures, ECACC) were maintained in a 50:50 (v/v) mixture of Dulbecco's Modified Eagle Medium (DMEM, Sigma) and Roswell Park Memorial Institute 1640 (RPMI, Sigma) (DR), supplemented with 5% Fetal calf serum (FCS, Biosera) and 1% (2 mM) L-Glutamine (Sigma). Cells were incubated at 37° C. in a humidified atmosphere of 5% CO2 in air. […] Cells were removed with a 10 mL suspension of DR 5% and counted in single cell suspension using an “improved Neubauer” haemocytometer (VWR). […]

[2] = test system: colorectal carcinoma cells (HCT116); experiment: Sensolyte caspase activity assay in colorectal carcinoma cells (HCT116); format: cell-based; conditions: 24 hours, PX-12 3 μM, G28-5 10 ug/mL, FIG. 3
Protocol: Apoptosis was assessed on the basis of caspase activity detection after 24 hours of treatment using the Sensolyte (Anaspec) assay (Cambridge Biosciences). Results are expressed as relative fluorescence (relative caspase activity) in comparison to negative controls and are representative of two independent experiments in which six technical replicates were carried out for each condition.
Carcinoma cell lines EJ and HCT116 (obtained from the European Collection of Cell Cultures, ECACC) were maintained in a 50:50 (v/v) mixture of Dulbecco's Modified Eagle Medium (DMEM, Sigma) and Roswell Park Memorial Institute 1640 (RPMI, Sigma) (DR), supplemented with 5% Fetal calf serum (FCS, Biosera) and 1% (2 mM) L-Glutamine (Sigma). […] Cells were removed with a 10 mL suspension of DR 5% and counted in single cell suspension using an “improved Neubauer” haemocytometer (VWR).
EJ and HT116 cells were seeded into white 96-well plates (at […] and 6×10^3 cells per well, respectively) and left incubated overnight. […] Cells were then incubated for 48 hours before assessing cell death using the CytoTox-Glo™ cell death detection assay (according to the manufacturer's instructions) on a FLUOstar™ OPTIMA (BMG Labtech) plate reader. Alternatively, after 24 or 48 hours caspase activity was determined using the SensoLyte® Homogenous AFC Caspase-3/7 Assay Kit (Anaspec). […]

[3] = test system: colorectal carcinoma SW480 cells; experiment: Cytotox-Glo % cell death in colorectal carcinoma SW480 cells; format: cell-based; conditions: 12 hours, BS-1 5 microg/mL, PX-12 4 microM, FIG. 8
Protocol: Apoptosis was assessed 12 hours later using the Cytotox-Glo assay (Promega). Results were obtained as relative luciferase activity in comparison to negative controls and subsequently percentage (%) cell death values were deduced for each condition according to the manufacturer's instructions. Results are representative of two independent experiments in which six technical replicates were carried out for each condition.

[4] = PX-12 alone; cited from earlier work
[5] = test system: phospho-JNK and Bax in ASK-1 knock-out EJ cell derivatives ('S18'); experiment: Immunoblotting of phospho-JNK and Bax after mCD40L; format: cell-based; conditions: cells with ASK-1 knockdown (S18), FIGS. 6a and 6b
Protocol: (§1) The cells were treated with mCD40L and apoptosis was assessed 48 hours later using the Cytotox-Glo assay (Promega) and by measuring levels of phospho-JNK and Bax using immune-blotting. The images from the blotting can be seen in FIGS. 6a and 6b.

[6] = test system: ASK-1 protein knock-out EJ cell derivatives ('S18'); experiment: Cytotox-Glo apoptosis assay in ASK-1 knock-out EJ derivatives treated with mCD40L; format: cell-based; conditions: S18 cells versus EJ cells, 48 hours, FIG. 5
Protocol: as §1

| Molecule | cytotoxicity / apoptosis (Cytotox-Glo, relative luminescence units) [1] | cytotoxicity / apoptosis by caspase activation (relative caspase activity) [2] | pro-apoptotic activity / cytotoxicity (% Cell Death) [3] | doses required for conventional PX-12 treatment to obtain cytotoxicity [4] [µg/mL] | p-JNK and Bax induction [5] | apoptosis after mCD40L in ASK-1 knockdown cells (Cytotox Glo) [6] |
| --- | --- | --- | --- | --- | --- | --- |
| CCC(C)SSc1ncc[nH]1 (stereo not drawn) [PX-12, 2-[(1-Methylpropyl)dithio]-1H-imidazole] | little | some cytotoxicity | some but not extensive cytotoxicity | 10 to 25 |  |  |
| B1 |  |  |  |  | lack of p-JNK and Bax induction | inhibition of apoptosis |
